Columns and labels:
[1] = membrane affinity as a measure of the lipophilicity (TRANSIL technology); format: physicochemical
human serum albumin = human serum albumin (Homo sapiens, UniProt P02768); experiment: binding constant to human serum albumin (TRANSIL technology)
Description: The effective molecular weight (MW) is obtained simply from the respective empirical formula of the substance. The waters solubilities and the typical administered dosages of these commercially available products are furthermore known from the literature.
The ADME maps in FIGS. 5 to 10 show by way of example a selection of commercially available pharmaceutical substances. The substance names and the associated experimental measurement values for their physicochemical properties are summarised in Table 1.

[2] = log binding constant to human serum albumin, TRANSIL

Sequence of human serum albumin (P02768 25-609): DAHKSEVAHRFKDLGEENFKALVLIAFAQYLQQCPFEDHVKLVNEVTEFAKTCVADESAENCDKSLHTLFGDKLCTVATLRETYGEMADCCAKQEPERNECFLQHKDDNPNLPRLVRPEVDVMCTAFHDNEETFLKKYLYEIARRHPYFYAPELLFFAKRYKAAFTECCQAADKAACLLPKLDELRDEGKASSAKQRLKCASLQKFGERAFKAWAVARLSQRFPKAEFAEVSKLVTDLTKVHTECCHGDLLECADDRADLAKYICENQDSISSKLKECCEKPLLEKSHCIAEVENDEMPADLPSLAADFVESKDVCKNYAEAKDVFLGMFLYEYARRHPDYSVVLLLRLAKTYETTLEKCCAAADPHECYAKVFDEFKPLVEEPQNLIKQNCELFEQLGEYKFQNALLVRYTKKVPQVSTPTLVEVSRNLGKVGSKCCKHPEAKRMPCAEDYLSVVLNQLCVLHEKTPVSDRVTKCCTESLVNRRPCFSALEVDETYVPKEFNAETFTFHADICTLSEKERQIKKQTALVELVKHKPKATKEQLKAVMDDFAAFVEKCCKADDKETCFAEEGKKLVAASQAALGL

Molecule	LogMA [1]	LogHSA (human serum albumin; human)	LogHSA (human serum albumin; [2])
CC(=O)Oc1ccccc1C(=O)O [Acetylsalicylic acid]	0.301	−3.097	
Nc1nc2c(ncn2COCCO)c(=O)[nH]1 [Acyclovir]	−0.097		
N=C(N)NC(=O)c1nc(Cl)c(N)nc1N [Amiloride]	0.301		
CCOC(=O)C1=C(COCCN)NC(C)=C(C(=O)OC)C1c1ccccc1Cl (stereo not shown) [Amlodipine]			−5.000
CC1(C)S[C@@H]2[C@H](NC(=O)[C@H](N)c3ccc(O)cc3)C(=O)N2[C@H]1C(=O)O [Amoxicilin]	0.778		−2.301
CC1(C)S[C@@H]2[C@H](NC(=O)[C@H](N)c3ccccc3)C(=O)N2[C@H]1C(=O)O [Ampicillin]	1.114		
Cc1cc(=O)n(-c2ccccc2)n1C [Antipyrine]	1.146		
CC(C)NCC(O)COc1ccc(CC(N)=O)cc1 (stereo not shown) [Atenolol]	0.602		
CC(C)NCC(O)COc1ccc(CCOCC2CC2)cc1 (stereo not shown) [Betaxolol]	2.398	−3.187	
CCCCNc1cc(C(=O)O)cc(S(N)(=O)=O)c1Oc1ccccc1 [Bumetanide]	2.279	−5.076	
C[C@H](CS)C(=O)N1CCC[C@H]1C(=O)O [Captopril]	0.477	−3.222	
NC(=O)N1c2ccccc2C=Cc2ccccc21 [Carbamazepine]	2.519	−2.539	
CC1=C(C(=O)O)N2C(=O)[C@@H](NC(=O)[C@H](N)c3ccc(O)cc3)[C@H]2SC1 [Cefadroxil]	1.079		
Cc1nnc(SCC2=C(C(=O)O)N3C(=O)[C@@H](NC(=O)Cn4cnnn4)[C@H]3SC2)s1 [Cefazolin]	0.903		−3.456
CO[C@@]1(NC(=O)CSCC#N)C(=O)N2C(C(=O)O)=C(CSc3nnnn3C)CS[C@@H]21 [Cefmetazole]	1.079		
CCN1CCN(C(=O)N[C@@H](C(=O)N[C@@H]2C(=O)N3C(C(=O)O)=C(CSc4nnnn4C)CS[C@H]23)c2ccc(O)cc2)C(=O)C1=O [Cefoperazone]	1.362		
CO[C@@]1(NC(=O)Cc2cccs2)C(=O)N2C(C(=O)O)=C(COC(N)=O)CS[C@@H]21 [Cefoxitin]	1.000		
CC1=C(C(=O)O)N2C(=O)[C@@H](NC(=O)[C@H](N)c3ccccc3)[C@H]2SC1 [Cephalexine]	0.778		
CN(C)CCCN1c2ccccc2Sc2ccc(Cl)cc21 [Chlorpromazine]	4.075	−3.284	

Molecule	LogMA [1]	LogHSA (human serum albumin; human)	LogHSA (human serum albumin; [2])
CN/C(=N/CCSCc1nc[nH]c1C)NC#N [Cimetidine]	1.176	−1.876	
O=C(O)c1cn(C2CC2)c2cc(N3CCNCC3)c(F)cc2c1=O [Ciprofloxacin]	0.954		
Clc1cccc(Cl)c1N=C1NCCN1 [Clonidine]	1.602	−2.463	
CN1CCN(C2=Nc3cc(Cl)ccc3Nc3ccccc32)CC1 [Clozapine]		−3.814	
CN1C(=O)CN=C(c2ccccc2)c2cc(Cl)ccc21 [Diazepam]	3.170		
O=C(O)Cc1ccccc1Nc1c(Cl)cccc1Cl [Diclofenac]	2.940		
Cc1onc(-c2c(Cl)cccc2Cl)c1C(=O)N[C@@H]1C(=O)N2[C@@H]1SC(C)(C)[C@@H]2C(=O)O [Dicloxacillin]	2.079	−4.064	
C[C@H]1O[C@@H](O[C@H]2[C@@H](O)C[C@H](O[C@H]3[C@@H](O)C[C@H](O[C@H]4CC[C@@]5(C)[C@H](CC[C@@H]6[C@@H]5C[C@@H](O)[C@]5(C)[C@@H](C7=CC(=O)OC7)CC[C@]65O)C4)O[C@@H]3C)O[C@@H]2C)C[C@H](O)[C@@H]1O [Digoxin]	1.477		−2.284
COc1ccc([C@@H]2Sc3ccccc3N(CCN(C)C)C(=O)[C@@H]2OC(C)=O)cc1 [Diltiazem]	2.544		
CCOC(=O)[C@H](CCc1ccccc1)N[C@@H](C)C(=O)N1CCC[C@H]1C(=O)O [Enalapril]	1.000	−2.959	
C[C@H](N[C@@H](CCc1ccccc1)C(=O)O)C(=O)N1CCC[C@H]1C(=O)O [Enalaprilate]	0.176		
COc1cc([C@@H]2c3cc4c(cc3[C@@H](O[C@@H]3O[C@@H]5CO[C@@H](C)O[C@H]5[C@H](O)[C@H]3O)[C@H]3COC(=O)[C@H]23)OCO4)cc(OC)c1O [Etoposide]	2.000		
CCOC(=O)C1=C(C)NC(C)=C(C(=O)OC)C1c1cccc(Cl)c1Cl (stereo not shown) [Felodipine]			−5.301
CC(C)n1c(/C=C/C(O)CC(O)CC(=O)O)c(-c2ccc(F)cc2)c2ccccc21 (stereo not shown) [Fluvastatin]		−5.678	
NS(=O)(=O)c1cc(C(=O)O)c(NCc2ccco2)cc1Cl [Furosemide]	1.342		
Nc1nc(O)c2ncn(COC(CO)CO)c2n1 [Ganciclovir]	−0.301		
C[C@]12CCC(=O)C=C1CC[C@@H]1[C@@H]2[C@@H](O)C[C@@]2(C)[C@H]1CC[C@]2(O)C(=O)CO [Hydrocortisone]	2.716		
CC(C)Cc1ccc(C(C)C(=O)O)cc1 (stereo not shown) [Ibuprofen]	1.778		
COc1ccc2c(c1)c(CC(=O)O)c(C)n2C(=O)c1ccc(Cl)cc1 [Indomethacin]	2.255		

Molecule	LogMA [1]	LogHSA (human serum albumin; human)	LogHSA (human serum albumin; [2])
CC(C(=O)O)c1cccc(C(=O)c2ccccc2)c1 (stereo not shown) [Ketoprofen]	1.505		
CCN(CC)CC(=O)Nc1c(C)cccc1C [Lidocaine]	1.771		
NCCCC[C@H](N[C@@H](CCc1ccccc1)C(=O)O)C(=O)N1CCC[C@H]1C(=O)O [Lisinopril]	0.845		
C[C@H]1C[C@@H]2[C@H]([C@@H](O)C[C@@]3(C)[C@H]2CC[C@]3(O)C(=O)CO)[C@@]2(C)C=CC(=O)C=C12 [Methylprednisolone]		−3.000	
COC(=O)C1=C(C)NC(C)=C(C(=O)OCCN(C)Cc2ccccc2)C1c1cccc([N+](=O)[O-])c1 (stereo not shown) [Nicardipine]		−5.000	
COCCOC(=O)C1=C(C)NC(C)=C(C(=O)OC(C)C)C1c1cccc([N+](=O)[O-])c1 (stereo not shown) [Nimodipine]		−5.000	
O=C1CN=C(c2ccccc2)c2cc(Cl)ccc2N1 [Nordiazepam]	3.086		
CCC1(c2ccccc2)C(=O)NC(=O)NC1=O [Phenobarbital]			−2.854
CC(=O)Nc1ccc(OCC(O)CNC(C)C)cc1 (stereo not shown) [Practolol]	1.301		
COc1cc2nc(N3CCN(C(=O)c4ccco4)CC3)nc(N)c2cc1OC [Prazosin]	2.544		
C[C@]12C=CC(=O)C=C1CC[C@@H]1[C@@H]2[C@@H](O)C[C@@]2(C)[C@H]1CC[C@]2(O)C(=O)CO [Prednisolone]	2.568		
CCN(CC)CCNC(=O)c1ccc(N)cc1 [Procainamide]	1.176		
CNC(=C[N+](=O)[O-])NCCSCc1ccc(CN(C)C)o1 [Ranitidine]		−2.155	
O=C(O)c1ccccc1O [Salicylic acid]	0.602		
CN1[C@@H]2C[C@@H](OC(=O)[C@H](CO)c3ccccc3)C[C@H]1[C@@H]1O[C@@H]12 [Scopolamine]	1.462		
O=C(O)c1cc(/N=N/c2ccc(S(=O)(=O)Nc3ccccn3)cc2)ccc1O [Sulfasalacine]	2.748		
CC(=O)CC(c1ccccc1)c1c(O)c2ccccc2oc1=O (stereo not shown) [Warfarin]	1.505		
Cc1cn([C@H]2C[C@H](N=[N+]=[N-])[C@@H](CO)O2)c(=O)[nH]c1=O [Zidovudine]	0.903		
Gentamicin	0.000		
